Test: Displacement of [3H]IMI from Drosophila melanogaster brain nAChR

Structure (SMILES)	Ki
O=[N+]([O-])/N=C1/N(CC/C=C\CCN2CCN(Cc3ccc(Cl)nc3)/C2=N\[N+](=O)[O-])CCN1Cc1ccc(Cl)nc1	0.78 µM
O=[N+]([O-])/N=C1/N(Cc2ccc(CN3CCN(Cc4ccc(Cl)nc4)/C3=N\[N+](=O)[O-])cc2)CCN1Cc1ccc(Cl)nc1	1.18 µM
O=[N+]([O-])/N=C1/N(CCCCCCCCN2CCN(Cc3ccc(Cl)nc3)/C2=N\[N+](=O)[O-])CCN1Cc1ccc(Cl)nc1	0.88 µM
O=[N+]([O-])/N=C1/N(CCCCCCCN2CCN(Cc3ccc(Cl)nc3)/C2=N\[N+](=O)[O-])CCN1Cc1ccc(Cl)nc1	0.14 µM
O=[N+]([O-])/N=C1/N(C/C=C/C=C/CN2CCN(Cc3ccc(Cl)nc3)/C2=N\[N+](=O)[O-])CCN1Cc1ccc(Cl)nc1	0.97 µM
O=[N+]([O-])/N=C1/N(CCCCCCCCCN2CCN(Cc3ccc(Cl)nc3)/C2=N\[N+](=O)[O-])CCN1Cc1ccc(Cl)nc1	1.38 µM
O=[N+]([O-])/N=C1/N(CC/C=C/CCN2CCN(Cc3ccc(Cl)nc3)/C2=N\[N+](=O)[O-])CCN1Cc1ccc(Cl)nc1	2.49 µM
O=[N+]([O-])/N=C1/N(CCCCCN2CCN(Cc3ccc(Cl)nc3)/C2=N\[N+](=O)[O-])CCN1Cc1ccc(Cl)nc1	5.35 µM
O=[N+]([O-])/N=C1/N(CCCCCCN2CCN(Cc3ccc(Cl)nc3)/C2=N\[N+](=O)[O-])CCN1Cc1ccc(Cl)nc1	0.68 µM

Test: Displacement of [3H]IMI from house fly nAChR
Design: species or system Musca domestica

Structure (SMILES)	Ki
O=[N+]([O-])/N=C1/N(CCCCCCCCCCN2CCN(Cc3ccc(Cl)nc3)/C2=N\[N+](=O)[O-])CCN1Cc1ccc(Cl)nc1	110 µM
O=[N+]([O-])/N=C1\N(Cc2ccc(Cl)nc2)CCN1CN1CCN(Cc2ccc(Cl)nc2)/C1=N\[N+](=O)[O-]	27 µM

Source: ChEMBL document CHEMBL1136998, “Bis-neonicotinoid insecticides: Observed and predicted binding interactions with the nicotinic receptor” (Bioorg Med Chem Lett, 2009)
